Reference: patent publication US20250195660A1, “INACTIVATING BACTERIA WITH ELECTRIC PULSES AND ANTIBIOTICS” (Purdue Research Foundation, priority 2018, published 2025)

Test system: Klebsiella pneumoniae (ATCC BAA-2146 NDM-I positive)
Assay: Inactivation of K. pneumoniae by 300 ns electric pulses and/or antibiotics (CFU plating)
Format: cell-based
From the text: Except for rifampicin, the five other antibiotics in these examples primarily target gram-positive bacteria and are largely ineffective or not used against gram-negative bacteria in a clinical setting.
A Blumlein pulsed generator consisting of two lines comprised of twelve 2000 pF capacitors connected by inductors produced 300 ns EPs with rise-times of 30 ns and fall-times of 35 ns at a repetition frequency of 1 Hz (12). The EPs were applied to a standard 2 mm gap electroporation cuvette (Dot Scientific R) filled with a solution containing the microorganisms. Used was a Luria broth of 0.5% salinity (5 grams of NaCl/Liter) for the solution to electrically match the resistance of the sample with the impedance of the pulse generator (11Ω) to prevent signal reflection. The voltage measurements were taken using a LeCroy PPE 20 kV high voltage probe with a 1000:1 attenuation recorded by a TeleDyne LeCroy® Waverunner 6 Zi Oscilloscope with a bandwidth of 4 GHZ.
The gram-negative strains included a carbapenem-resistant Escherichia coli (ATCC® BA-2452TM, New Delhi metallo-beta-lactamase NDM-1 positive.), Klebsiella pneumoniae (ATCC® BAA-2146TM NDM-I positive), and a gentamicin, streptomycin and sulfonamide resistant Pseudomonas aeruginosa (BEI Resources NR-31040). Assessed was the gram-positive strain of methicillin resistant Staphylococcus aureus (USA300-0114 strain), which is also resistant to erythromycin and tetracycline. Samples were cultured in Luria broth (LB Broth Lennox, powder microbial growth medium, SIGMA-ALDRICH®) by taking 25 mL of broth in a 50 mL sterile conical tube and incubating in a shaker for 16 h at 37° C. Samples were diluted 50% by adding 25 mL media to the incubated sample as we plated controls for each experiment and condition.
Samples were treated in 2 mm gap cuvettes containing 365 μL of sample between the electrodes, with bio-grade mineral oil added on top of the electrode plates to prevent arcing.
To establish a common baseline for comparing different NSEP parameters, we fixed the energy density U delivered to the cuvettes according to Formula (1) (above). For 300 ns EPs, 500 EPs at 20 kV/cm and 222 EPs at 30 kV/cm delivered the same energy to the sample.
Tissue culture Petri dishes from VWR R (15 cm diameter, 10 mm height) were utilized for plating. Each plate was covered with 15 mL of Luria broth (Agar, microbiology tested powder, SIGMA-ALDRICH®), which was prepared by adding 20 g of LB Lennox (SIGMA-ALDRICH) and 15 g/L of agar to water prior to being autoclaved. The salinity of the agar was the same as the LB (0.5% NaCl) to minimize additional environmental stressors on the bacteria.
Removed was 20 μL from each cuvette and added to 180 μL of PBS in a 96-well dish in triplicate. Each well was then diluted by a ratio of 10:1 five additional times by taking 20 μL of the diluted sample into subsequent wells using multi-channel pipettes (using fresh tips for each dilution). Plated were the six dilutions of each sample two times each by adding 4 μL from each well onto the Petri dish using a multi-channel pipette, which allowed the plating of all three replicates on the same plate to achieve n=6. These plates were then cultured overnight in an incubator at 37° C., and counted the next day.

CO[C@H]1/C=C/O[C@@]2(C)Oc3c(C)c(O)c4c(O)c(c(/C=N/N5CCN(C)CC5)c(O)c4c3C2=O)NC(=O)/C(C)=C\C=C\[C@H](C)[C@H](O)[C@@H](C)[C@@H](O)[C@@H](C)[C@H](OC(C)=O)[C@@H]1C [rifampicin]
additional inactivation compared to NSEPs alone, K. pneumoniae (30 kV/cm NSEPs + 2 μg/mL): 1 log | log reduction of K. pneumoniae (30 kV/cm NSEPs + 2 μg/mL): 5 log | additional inactivation compared to NSEPs alone, K. pneumoniae (30 kV/cm NSEPs + 20 μg/mL): 1 log
